Data published in US11987578B1, “7-(4-((5-(2-chlorobenzylideneamino)-2-thioxo-1,3,4-thiadiazol-3(2H)-yl)methyl)piperazin-1-yl)-1-cyclopropyl-6-fluoro-4-oxo-1,4-dihydroquinoline-3-carboxylic acid as an anti-inflammatory compound” (KING FAISAL UNIVERSITY, priority 2023, dated 2024).
Where two headings read alike, the source gives them in different places.

Assays:
Bovine Serum Albumin = Bovine Serum Albumin (Bos taurus, UniProt P02769); experiment: Bovine Serum Albumin Assay (BSA), inhibition of heat-induced protein denaturation; type: biochemical
Sequence of Bovine Serum Albumin (P02769 25-607): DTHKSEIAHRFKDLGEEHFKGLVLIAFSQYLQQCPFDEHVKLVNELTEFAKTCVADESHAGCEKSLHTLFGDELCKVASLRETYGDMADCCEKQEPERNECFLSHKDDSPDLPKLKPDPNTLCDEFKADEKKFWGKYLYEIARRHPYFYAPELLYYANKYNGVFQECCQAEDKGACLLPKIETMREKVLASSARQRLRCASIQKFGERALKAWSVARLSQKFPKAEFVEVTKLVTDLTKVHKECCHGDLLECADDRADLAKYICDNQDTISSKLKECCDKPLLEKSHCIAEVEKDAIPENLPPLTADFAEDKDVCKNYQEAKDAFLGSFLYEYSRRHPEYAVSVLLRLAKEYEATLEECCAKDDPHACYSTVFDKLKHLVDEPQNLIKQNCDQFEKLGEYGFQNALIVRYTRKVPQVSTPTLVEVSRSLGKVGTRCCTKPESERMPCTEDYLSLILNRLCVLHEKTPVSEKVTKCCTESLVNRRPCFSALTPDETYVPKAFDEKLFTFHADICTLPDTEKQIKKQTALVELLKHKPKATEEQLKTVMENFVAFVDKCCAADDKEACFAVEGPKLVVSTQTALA
Method: Bovine Serum Albumin Assay (BSA) In vitro-inflammatory activities of the tested samples were determined using a modified method of the BSA assay reported by Williams et al. BSA solution (0.4%, w/v) was prepared in Tris Buffered Saline. The pH was adjusted to 6.4 with glacial acetic acid. Different dilutions of 20, 40, 60, 80, and 100 μg/mL of 7-(4-((5-(2-chlorobenzylideneamino)-2-thioxo-1,3,4-thiadiazol-3(2H)-yl)methyl)piperazin-1-yl)-1-cyclopropyl-6-fluoro-4-oxo-1,4-dihydroquinoline-3-carboxylic acid stock solutions were added to test tubes containing 1 mL of 0.4%, w/v BSA buffer solution. Both negative (solvent) and positive (aspirin) controls were assayed in a similar manner. The solutions were then heated in a water bath at 72° C. for 10 minutes and cooled for 20 minutes under laboratory conditions. The turbidity of the solutions (level of protein precipitation) was measured at 660 nm in Spectrophotometer (V-770 UV-Visible/NIR Spectrophotometer). The percentage inhibition of precipitation (protein denaturation) was determined relative to the negative control using the following equation: [formula]

Row | inhibition at 100 µg/mL (Bovine Serum Albumin; 100 μg/ml, 0.4% w/v BSA, pH 6.4, 72° C. for 10 minutes, turbidity at 660 nm, relative to negative control, read-out: percentage inhibition of precipitation (protein denaturation)) | melting point | in vitro anti-inflammatory activity (Bovine Serum Albumin; BSA assay, result in words) | inhibition at 100 µg/mL (Bovine Serum Albumin; pH 6.4, read-out: percentage inhibition of precipitation (protein denaturation)) | Structure (SMILES)
1 | 96.8% |  |  |  | CC(=O)Oc1ccccc1C(=O)O [aspirin, reference compound]
2 |  | 207 to 209 °C | considerable anti-inflammatory effect | 90.2% | O=C(O)c1cn(C2CC2)c2cc(N3CCN(Cn4nc(/N=C/c5ccccc5Cl)sc4=S)CC3)c(F)cc2c1=O [7-(4-((5-(2-chlorobenzylideneamino)-2-thioxo-1,3,4-thiadiazol-3(2H)-yl)methyl)piperazin-1-yl)-1-cyclopropyl-6-fluoro-4-oxo-1,4-dihydroquinoline-3-carboxylic acid]
